Laboratory results published in patent US8613948B2, “Treatment of faecal incontinence and other conditions with 1R, 2S-methoxamine” (Norgine BV, priority 2001, dated 2013).
Where “and” joins values, the source holds several entries; their conditions need not be identical. Equal values may be shown once. Read-outs that look alike come from different tables or passages of the source. One block for each compound: values may come before it.

Tests used:
[1] = test system: pig internal anal sphincter muscle; test: In vitro contraction of internal anal sphincter muscle strips in superfusion organ bath; format: cell-based; conditions: for EC50: Sus scrofa; for contraction of smooth muscle strips from the IAS: dose range 10^−2M to 10^−8M
Protocol: Tissue was obtained from female Large White pigs from a local abattoir. Pieces of internal anal sphincter muscle were cut and the tissue was transferred immediately to Krebs solution at 4° C. (120 mM NaCl, 5.9 mM KCl, 15.4 mM Na2HCO3, 1.2 mM NaH2PO4, 2.5 mM CaCl2, 1.2 mM MgCl2, 11.5 mM glucose, equilibrated with 97% oxygen and 3% carbon dioxide to maintain the pH at 7.4±0.05). The epithelium of the anal canal was removed along with the submucosa. Strips of the internal anal sphincter (IAS) were cut, each measuring approximately 1×1×7 mm, weighing 2 mg to 8 mg and containing parallel muscle bundles. Fine 5-0 silk ligatures were tied to each end and the strips mounted for isometric tension recording in superfusion organ baths (capacity 0.2 ml)^19 as shown in FIG. 1. The muscle strip 1 is held by a thread 2 to secure it in position within the Perspex jacket 3. The strips were perfused continuously with Krebs solution (37° C.) at a rate of 1 ml/min introduced via an inflow 4 and exiting via an overflow 5. This apparatus allows six strips to be studied simultaneously. The strips were initially loaded with 1 g tension and allowed to equilibrate for at least 90 minutes. Tension was measured by Pioden dynamometer UF1 transducer (Pioden Controls, Canterbury, UK) involving a tension transducer 6 and ring electrodes 7 and 7a, and recorded both on a six channel Tekman 900 pen recorder (Tekman Electronics, Learnington Spa, UK) and using Chart v3.6 and MacLab Data Acquisition System (AD Instruments, Australia).
Phenylephrine (Sigma Chemical Co., Poole, UK), methoxamine racemate and the four methoxamine isomers were dissolved in Krebs solution and tested for their effect on IAS tone. Methoxamine racemate, that is to say, an equimolar mixture of the four isomers, was produced by Prosyth Limited, Acton, Sudbury, Suffolk. The four isomers (called peaks 1 to 4), were separated as described in Example 3. Peak 2 is 1R,2S-methoxamine. The 1R,2S isomer was also synthesised as described in Example 4. It has been confirmed by crystallography that peak 2 is 1R,2S-methoxamine.
IAS strips developed intrinsic tone during the equilibrium period. After equilibration increasing concentrations of each of the test compounds were added for 20 second periods, with intervening washout periods of at least ten minutes, until the tone had returned to baseline.
Results are expressed as mean (standard error of the mean) and the number of surgical specimens from which these strips were derived. A maximum of six strips were used from each pig for each test compound.
Test compound-induced increases in tone were calculated by taking the peak tone after application of the test compound and […]. This figure was then expressed as a percentage of maximal increase in tone seen across the dose range used (10^−2M to 10^−8M). All analysis was performed using Chart v3.6 software.
EC50 values were calculated by plotting concentration-response curves for each muscle strip. The dose causing 50% of maximal contraction was calculated by linear regression. EC50 values for different drugs were compared using a two-tailed t-test, assuming unequal variance and with p<0.05 considered significant.

anaesthetised minipigs [2] = test: Mean anal resting pressure (MARP) in anaesthetised minipigs after topical administration to the anoderm; format: in vivo, Göttingen-minipigs; conditions: for effect on internal anal sphincter pressure and blood pressure: pigs in vivo
Protocol: • a) Placebo in 4% w/w gel • b) 0.3% by weight 1R,2S-methoxamine in 4% w/w gel • c) 1% by weight 1R,2S-methoxamine in 4% w/w gel • d) 3% by weight 1R,2S-methoxamine in 4% w/w gel • The 4% w/w gel comprises 4 g of hydroxypropylmethyl cellulose in 96 ml of 0.5M acetate buffer. 1% by weight 1R,2S-methoxamine in 4% w/w gel comprises 1 g of 1R,2S-methoxamine in 99 g of the 4% gel. Animals/Animal Maintenance
Göttingen-minipigs obtained from Ellegaard Göttingen Minipigs ApS, Soro Landevej 302, DK-4261 Dalmose, Denmark were used for the investigation. […] Four male animals were used. Animal no. 2 was replaced by animal no. 4, see below.
The minipigs were anaesthetised with a chloralose-urethane mixture (ratio 1+5). Additional anaesthesia was given when needed. To ensure a stable general condition of the minipig, blood gases and pH-value were measured in blood obtained from the right or left a. femoralis using a blood gas analyser ABL 70 (Radiometer, Copenhagen, Denmark) before start of experiment. Ringer solution (5 ml/kg b.w./h) was given continuously to compensate for fluid losses. The body temperature of the animals was maintained at 38° C. throughout the experiment of external heating.
(§1) The test substances were administered topically to the anoderm using a volume of 0.5 ml/animal. The interval between each observation period was 20 minutes. The administration was performed employing a 1 ml syringe inserted approximately 1 cm into the anal canal. The test substances were administered slowly while the syringe was rotated. After the preparation and a period of at least 15 minutes for stabilisation of the circulatory functions, the animals were treated with the placebo or the selected dose levels of the test substance by administration to the anoderm.
The anal resting pressure was measured by introduction of a manometric probe (Unisensor Microtipcatheter 8104-00-9409-D; Medical Measurement Systems b.v., Collosseum 25, NL-7521P.V. Enschede, The Netherlands) into the rectum three times. The anal resting pressure taken as a mean of these three measurements (MARP) was recorded with a Rikadenki Multipenrecorder.

anaesthetised minipigs [3] = test: Peripheral arterial blood pressure in anaesthetised minipigs after topical administration to the anoderm; format: in vivo, Göttingen-minipigs; conditions: 0.5 ml of 0.3%, 1%, 3% gels
Protocol: as §1
An intraarterial indwelling catheter (size 0.8×1.4 mm, B. Braun Melsungen AG, D-34212 Melsungen, Germany) was connected to a pressure transducer (DTX, Pfrimmer-Viggo, Erlangen, Germany) recording the systolic and diastolic arterial blood pressure in the right or left a. femoralis. The signal was boosed by a Hellige Servomed SMV 178 T amplifier (Hellige GmbH, D-79100 Freiburg, Germany). The blood pressure was recorded and monitored with a Hellige Cardiognost EK 512 P (paper speed: 2.5 mm/sec). Systolic and diastolic blood pressure [mmHg] were determined and the mean pressure was calculated according to the following formula: Mean blood pressure [mmHg]=(systolic pressure+(2×diastolic pressure))/3 Heart Rate and Electrocardiography […]

anaesthetised minipigs [4] = test system: anaesthetised minipigs; set-up: species or system Göttingen-minipigs; conditions: in vivo
Protocol: as §1
ECG recordings were made using the standard limb leads I, II and III as well as augmented limb leads aVR, aVL and aVF. A standardisation of 10 mm/1 mV was used and a paper speed of 50 mm/sec. The recordings were carried out using a HELLIGE Marquette mac 5000 12SL. The recordings were examined visually for any arrhythmias and abnormalities of the electrical complexes. In addition, the following parameters were evaluated for limb lead II: Heart rate [beats/min]; P segment, [msec]; P-Q interval, [msec]; QRS complex [msec]; Q-T interval, [msec]. The QTc values [msec] were calculated according to the van de Water-formula: QTc=QT−0.087 (R-R distance−1000)
For each measurement period the heart rate, ECG and the blood pressure in the a. femoralis were measured continuously and recorded immediately before and 5, 10, 15, 20, 40 and 60 minutes after start of administration for periods of approx. 30 sec, and then in intervals of 20 minutes until any effect had subsided.

[5] = Methoxamine plasma levels in minipigs after topical administration to the anoderm; format: in vivo, Göttingen-minipigs; conditions: for mean peak plasma levels: 0.5 ml topical, two pigs
Protocol: as §1
Blood samples (5 ml/time-point) were taken immediately before and 10, 20, 40, 60, 90, and 120 minutes after start of administration, and were collected into lithium-heparin containers. The blood samples were immediately cooled at +2° C. to +8° C. by the use of an IsoTherm-Rack system (Eppendorf-Netheler-Hinz GmbH, D-22331 Hamburg, Germany) and the whole blood was processed for […]. Plasma was prepared by centrifugation (5 min, 4000 rpm, at +5° C.) and split into aliquots of approx. 1 ml each. Both plasma aliquots were immediately frozen at −80° C. at least and stored at this temperature until dispatch of one aliquot on dry ice for analysis.
The samples were analysed for the methoxamine plasma levels. The results are presented in Appendix 3.

anoderm = test: Macroscopical inspection of the anoderm; format: in vivo, Göttingen-minipigs; conditions: 0.3%, 1%, or 3%
Protocol: A macroscopical inspection of the anoderm was carried out during the experiments. Any obvious irritation and/or erythema caused by the fairly low pH value of the test substance formulation was reported.

anaesthetised minipigs [6] = test: Reactivity of the circulatory functions to arterenol or isoproterenol; format: in vivo, Göttingen-minipigs; conditions: any of the gels
Protocol: Before the first administration and at further suitable times after the administration, isoproterenol was administered intravenously for control purposes. Arterenol (norephinephrine hydrochloride, also known as L-noradrenaline) was administered for control purposes at the end of the study only after completing the collection of the blood samples for toxicokinetics.

human subjects = conditions: cited from earlier work
[7] = test system: patients with incontinence; conditions: cited from earlier work
[8] = IAS smooth muscle strips, n=24(4), read-out: EC50 values
[9] = pig IAS strips, Table 1, read-out: EC50 value μM (±SE)

- EC50 [1, 8]: 0.058 µM
- EC50 [1, 9]: 58.3 µM
Structure (SMILES): COc1ccc(OC)c(C(O)C(C)N)c1 (racemic) [methoxamine racemate, 2-amino-1-(2,5-dimethoxyphenyl)-1-propanol]
- contraction of smooth muscle strips from the IAS [1]: caused a dose-dependent contraction

- EC50 ([1]; chemically synthesised 1R,2S isomer, pig IAS strips, read-out: EC50): 10.5 µM
- EC50 [1, 9]: 17.6 µM
- maximum plasma levels ([5]; 0.3% formulation): 6 ng methoxamine/ml plasma
- time of peak plasma levels ([5]; 0.3% gel): 40 min
- mean peak plasma levels ([5]; 0.3% gel): 4.90 ng/mL and 6.97 ng/mL
- time of maximum plasma levels following application ([5]; 0.3%, 1% and 3% formulations): approximately 40 minutes
- maximum plasma levels ([5]; 1% formulation): 10 ng methoxamine/ml plasma
- mean peak plasma levels ([5]; 1.0% gel): 9.88 ng/mL and 11.0 ng/mL
- maximum plasma levels ([5]; 3% formulation): 56 ng methoxamine/ml plasma
- mean peak plasma levels ([5]; 3.0% gel): 50.4 ng/mL and 61.3 ng/mL
- macroscopic inspection: pathological changes (anoderm): No pathological changes were observed
- expected reactions to arterenol or isoproterenol (anaesthetised minipigs [6]): not influenced
Structure (SMILES): COc1ccc(OC)c([C@@H](O)C(C)N)c1 (single isomer, unassigned) [1R,2S-methoxamine]
- contraction of smooth muscle strips from the IAS [1]: caused dose dependent contraction
- potency at inducing contraction of internal anal sphincter muscle in vitro relative to phenylephrine ([1]; in vitro): at least four times more potent
- potency relative to methoxamine racemate ([1]; racemate = equimolar mixture of all four isomers): at least four times the potency
- increase in MARP compared to the start value (anaesthetised minipigs [2]; 0.5 ml of 0.3% gel): 73%
- period of MARP increase (anaesthetised minipigs [2]; 0.5 ml of 0.3% gel): 110 min
- start of MARP increase after administration (anaesthetised minipigs [2]; 0.5 ml of 0.3% gel): 5 min
- MARP (anaesthetised minipigs [2]; 0.5 ml of 0.3% gel, topical to anoderm, average): 50 mmHg
- increase in MARP (anaesthetised minipigs [2]; 0.5 ml of 1% gel): 227%
- time after application to MARP increase (anaesthetised minipigs [2]; 0.5 ml of 1% gel): ≤ 20 min
- MARP (anaesthetised minipigs [2]; 0.5 ml of 1% gel, average): 64 mmHg
- MARP (anaesthetised minipigs [2]; 0.5 ml of 3% gel): 70 mmHg
- MARP (anaesthetised minipigs [2]; 0.5 ml of 3% gel, listed as IR,2S-methoxamine): approx. 70 mmHg
- effect on internal anal sphincter pressure and blood pressure (anaesthetised minipigs [2]; 0.5 ml of gel containing 1% or 0.3% by weight (5 mg and 1.5 mg), topical): increase internal anal sphincter pressure without any effect on blood pressure
- effect on internal anal sphincter pressure and blood pressure (anaesthetised minipigs [2]; gels containing 1% by weight and even as little as 0.1% by weight): increase internal anal sphincter pressure without any effect on blood pressure
- systolic, diastolic or mean blood pressure (anaesthetised minipigs [3]): not influenced
- heart rate (anaesthetised minipigs [4]; Göttingen, minipig, 2 h): approx. 100 beats/min
- increase in the heart rate (anaesthetised minipigs [4]; Göttingen, minipig, 2 h): 29%
- influence on P-segment, P-Q interval, Q-T interval, QTc value and QRS complex (anaesthetised minipigs [4]): no substance-related influence
- prolongation of the QT-interval (anaesthetised minipigs [4]): no evidence was noted for a prolongation of the QT-interval
- ventricular premature complexes (visual assessment of ECG) (anaesthetised minipigs [4]): did not reveal any ventricular premature complexes

- EC50 [1, 8]: 75 µM
- EC50 [1, 9]: 74.7 µM
Structure (SMILES): CNC[C@H](O)c1cccc(O)c1 [Phenylephrine]
- contraction of smooth muscle strips from the IAS [1]: caused a dose-dependent contraction
- duration of rise in resting anal pressure (median) (human subjects; 10% gel, normal human subjects): 7 h
- rise in resting anal pressure (human subjects; 10% to 20% by weight gels, patients with low resting pressures and incontinence): no significant rise in resting anal pressure
- rise in resting anal pressure (human subjects; 30% and 40% gels, patients with low resting pressures and incontinence): increases did achieve statistical significance
- rise in resting anal pressure (human subjects; gel comprising 10% by weight, applied to the anus of normal human subjects): 33%
- subjective improvement in continence ([7]; 10% gel, patients with faecal leakage after ileoanal pouch construction): significantly greater subjective improvement in continence compared to placebo
- incontinence scores, resting anal canal pressure or anodermal blood flow ([7]; 10% gel, randomised controlled trial, 36 patients with incontinence): no significant overall improvements
- local side effect ([7]; topical preparations of the order of 30-40% by weight): perianal burning has been reported
